# According to PubChem BioAssay AID1996:
# Conditions: buffer; pH 7.4; 200.0 µM
row,SMILES,solubility kinetic [µg/mL]
1,CN1CCN(Cc2nc3ccccc3n2C)CC1CCO (centres undefined),34.3
2,OC(COc1ccccc1)CN1CCCC1 (centres undefined),> 33.2
3,COc1ccc2nc(SCCC(=O)O)cc(C)c2c1,> 41.6
4,COc1ccc2c(c1)C=C(CN1CCN(C(C)C)C(CCO)C1)CO2 (centres undefined),34.5
5,CCN1CCN(C(=O)c2cc3cc(Cl)ccc3[nH]2)CC1,> 43.8
6,O=C1CC(c2ccc(Cl)cc2)CC(O)=C1C=NCCO (centres undefined),> 44.1
7,O=C(COC(=O)c1cccnc1Cl)NC1CCCc2ccccc21 (centres undefined),> 51.7
8,CCC(CC)c1nnc(NC(=O)c2cccc(S(=O)(=O)N3CCOCC3)c2)s1,> 63.7
9,Cn1c(COc2ccccc2O)[n+](C)c2ccccc21.[Br-],> 52.4
10,Cc1ccc(S(=O)(=O)NCC(=O)OCC(=O)NCc2ccco2)cc1,> 55
11,CC(NC(=O)COC(=O)c1ccc2ccccc2n1)c1ccccc1 (centres undefined),5.3
12,CCc1ccc(NC(=O)CCCN2C(=S)NC(C)(C)CC2C)cc1 (centres undefined),38.7
13,COc1ccc2nc(Nc3ccccc3OC)sc2c1,3.8
14,CN(Cc1ccccc1Cl)C(=O)c1cc2ccccc2o1,13.7
15,CN(Cc1ccccc1)C(=S)Nc1cccnc1,> 38.6
16,O=C(CSc1ccccc1)NC1CCCCCC1,> 39.5
17,O=C(CSc1nnc(C2CC2)n1-c1ccccc1)NC1CCS(=O)(=O)C1 (centres undefined),> 58.9
18,NC(=NC(=O)c1ccc(OCC(F)(F)F)nc1)c1ccccc1,6.6
19,CN(C)c1cccc(C(=O)Nc2nc3ccccc3[nH]2)c1,12.1
20,CC(=O)C1=C(C)NC(=S)NC1c1cccc([N+](=O)[O-])c1 (centres undefined),3.5

row,SMILES,solubility kinetic [µg/mL]
1,COC(=O)NCN1C(=O)C2C3C=CC(C3)C2C1=O (centres undefined),34.4
2,CCC(OC(=O)c1nsc(Cl)c1Cl)C(=O)NCC1CCCO1 (centres undefined),52.8
3,CCOC(=O)N1CCN(Cc2ccc3c(c2)OCO3)CC1,41.9
4,Cc1ccc(NC(=O)CN2C(=O)NC(C)(c3ccc4c(c3)OCO4)C2=O)cc1 (centres undefined),> 57.2
5,CCOc1nc(NCCO)nc(Nc2ccccc2F)n1,> 44
6,O=C1c2ccccc2NC(c2ccccc2)N1Cc1ccccc1 (centres undefined),7.9
7,CCn1c(Oc2ccccc2)nc2c1c(=O)n(C)c(=O)n2C,37.8
8,CCOC(=O)CSc1nc(C)cc(C)c1C(N)=O,35.6
9,COc1ccc(NC(=O)C2CCN(C(=O)c3ccco3)CC2)c(OC)c1,44.2
10,N#Cc1cccc(CSc2ncnc(N)n2)c1,> 36.5
11,CCCn1c(C)nnc1SCC(=O)NC1CCCCC1,> 44.5
12,COc1ccc(OC)c(S(=O)(=O)Nc2cc(C)on2)c1,> 44.7
13,O=C(/C=C/c1ccc(F)cc1)Nc1cccc(S(=O)(=O)N2CCOCC2)c1,13.9
14,Cc1ccc2oc(C(=O)Nc3nonc3C)c(C)c2c1,< 0.2
15,O=c1ccc(-c2nc3ccccc3n2Cc2ccc(Cl)cc2)c[nH]1,38.7
16,O=[N+]([O-])c1ccc(NCCN2CCOCC2)c([N+](=O)[O-])c1,> 44.4
17,COc1ccc2[nH]cc(CCNC(=O)Cc3c(F)cccc3Cl)c2c1,3.9
18,COc1cc(CNc2ncnc3c2[nH]c2ccc(C)cc23)cc(OC)c1,0.7
19,O=C1NC(=O)C(=Cc2ccsc2)C(=O)N1,> 33.3
20,C=CCSc1nsc(NC(=O)Nc2ccc(F)cc2)n1,1.2

row,SMILES,solubility kinetic [µg/mL]
1,CCn1c(=NC(=O)C2COc3ccccc3O2)sc2c(C)ccc(OC)c21 (centres undefined),< 0.4
2,CC(CCc1ccccc1)NC(=O)CN(C)Cc1ccc(F)cc1 (centres undefined),34.4
3,COc1ccc(CNC(C)Cc2cccs2)cc1 (centres undefined),30.4
4,Cc1[nH]c2ccc(C(=O)NC3CCCC3)cc2c1C,> 38.5
5,CN(Cc1nc2ccccc2s1)C(=O)c1ccc(F)cc1,> 45.1
6,COc1ccccc1CNC(=O)c1cc(C)nc2ccccc12,41.8
7,COc1cc(/C=C(\CCC(=O)O)c2nc3ccccc3s2)ccc1OCC(=O)Nc1c(Cl)cccc1Cl,24.2
8,O=CC(Cl)P(=O)(N1CCOCC1)N1CCOCC1 (centres undefined),32.5
9,Cc1cccc2sc(NC(=O)CCn3cccc3)nc12,5.7
10,NC(=O)COc1ccc(NS(=O)(=O)Cc2ccccc2)cc1,46.1
11,Cc1cc(=O)n2c(-c3ccc(Cl)cc3)csc2n1,7.9
12,O=C1Nc2ccccc2/C1=C/c1ccccc1F,2.4
13,Cc1ccc(NC(=O)N2C3CCCC2CC(NC(=O)C2CC2)C3)cc1 (centres undefined),9.4
14,Oc1cccc(C=Nc2cccc3ccccc23)c1O,18.3
15,O=C(NC(Cc1ccccc1)C(=O)O)NC12CC3CC(CC(C3)C1)C2 (centres undefined),> 51.4
16,CC(C)C(=O)O/N=C(\N)c1ccc(Oc2ccc(Cl)cc2)c([N+](=O)[O-])c1,3.5
17,N#CCCN=C(NS(=O)(=O)c1ccccc1)c1ccccc1,> 47
18,Cc1ccc(S(=O)(=O)CCc2nc3ccccc3[nH]2)cc1,> 45.1
19,CCCOc1ccc(-c2cn3ccccc3n2)cc1,2.3
